The supplement of paper PMC10307832

Key:
Assay in all cases: relative viability (nuclei count vs DMSO), 5 days (fraction); higher = more cells survive
NCI-H1915 = system: NCI-H1915
Outline: (§1)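 Relative viability divides the nuclei count in treated wells by that in vehicle wells. Lung cancer cell lines were seeded in 1536-well plates, dosed by pin tool the next day, and fixed and stained after 5 days in one step with final 0.05% Triton X-100, 1% formaldehyde and 1 ug/ml Hoechst. Dosing was a single drug or a fixed anchor-drug dose plus five library-drug doses (not always all listed) in √10 steps, and values are medians of duplicate plates imaged at 4×.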

EPLC-272H = system: EPLC-272H
Outline: as §1

COR-L 105 = system: COR-L 105
Outline: as §1

UMC-11 = system: UMC-11
Outline: as §1

NCI-H1755 = system: NCI-H1755
Outline: as §1

SK-LU-1 = system: SK-LU-1
Outline: as §1

LCLC-97TM1 = system: LCLC-97TM1
Outline: as §1

NCI-H1792 = system: NCI-H1792
Outline: as §1

NCI-H358 = system: NCI-H358
Outline: as §1

HOP-62 = system: HOP-62
Outline: as §1

LXF-289 = system: LXF-289
Outline: as §1

NCI-H1944 = system: NCI-H1944
Outline: as §1

A-427 = system: A-427
Outline: as §1

HCC-78 = system: HCC-78
Outline: as §1

NCI-H1975 = system: NCI-H1975
Outline: as §1

LU99A = system: LU99A
Outline: as §1

NCI-H1793 = system: NCI-H1793
Outline: as §1

NCI-H460 = system: NCI-H460
Outline: as §1

HCC-366 = system: HCC-366
Outline: as §1

NCI-H2085 = system: NCI-H2085
Outline: as §1

NCI-H2170 = system: NCI-H2170
Outline: as §1

LC-2-ad = system: LC-2-ad
Outline: as §1

Q: Which results are given for `COc1cc(N2CCC(C(N)=O)CC2)ccc1Nc1nc(N)c(Cl)c(Nc2ccccc2S(=O)(=O)C(C)C)n1` [HG-5-88-01] + CS(=O)(=O)CCNCc1ccc(-c2ccc3ncnc(Nc4ccc(OCc5cccc(F)c5)c(Cl)c4)c3c2)o1 [Lapatinib] (partner 2 µM)?
A: relative viability (NCI-H1915; first compound 0.04 µM): 0.958; relative viability (NCI-H1915; first compound 0.1265 µM): 1; relative viability (NCI-H1915; first compound 0.4 µM): 0.977; relative viability (NCI-H1915; first compound 1.265 µM): 1; relative viability (NCI-H1915; first compound 4 µM): 0.698; relative viability (EPLC-272H; first compound 0.04 µM): 0.871; relative viability (EPLC-272H; first compound 0.1265 µM): 0.952; relative viability (EPLC-272H; first compound 0.4 µM): 0.994; relative viability (EPLC-272H; first compound 1.265 µM): 0.949; relative viability (EPLC-272H; first compound 4 µM): 0.0809; relative viability (COR-L 105; first compound 0.04 µM): 0.346; relative viability (COR-L 105; first compound 0.1265 µM): 0.375; relative viability (COR-L 105; first compound 0.4 µM): 0.329; relative viability (COR-L 105; first compound 1.265 µM): 0.336; relative viability (COR-L 105; first compound 4 µM): 0.334; relative viability (UMC-11; first compound 0.04 µM): 0.84; relative viability (UMC-11; first compound 0.1265 µM): 1.13; relative viability (UMC-11; first compound 0.4 µM): 0.837; relative viability (UMC-11; first compound 1.265 µM): 0.927; relative viability (UMC-11; first compound 4 µM): 0.632; relative viability (NCI-H1755; first compound 0.1265 µM): 1.04; relative viability (NCI-H1755; first compound 0.4 µM): 0.986; relative viability (NCI-H1755; first compound 1.265 µM): 1.02; relative viability (NCI-H1755; first compound 4 µM): 1.15; relative viability (SK-LU-1; first compound 0.04 µM): 0.947; relative viability (SK-LU-1; first compound 0.1265 µM): 0.855; relative viability (SK-LU-1; first compound 0.4 µM): 0.787; relative viability (SK-LU-1; first compound 1.265 µM): 0.611; relative viability (SK-LU-1; first compound 4 µM): 0.737; relative viability (LCLC-97TM1; first compound 0.04 µM): 0.999; relative viability (LCLC-97TM1; first compound 0.1265 µM): 0.95; relative viability (LCLC-97TM1; first compound 0.4 µM): 0.471; relative viability (LCLC-97TM1; first compound 1.265 µM): 0.683; relative viability (LCLC-97TM1; first compound 4 µM): 0.301; relative viability (NCI-H1792; first compound 0.04 µM): 0.792; relative viability (NCI-H1792; first compound 0.1265 µM): 0.892; relative viability (NCI-H1792; first compound 0.4 µM): 0.864; relative viability (NCI-H1792; first compound 1.265 µM): 0.879; relative viability (NCI-H1792; first compound 4 µM): 0.888; relative viability (NCI-H358; first compound 0.04 µM): 0.451; relative viability (NCI-H358; first compound 0.1265 µM): 0.378; relative viability (NCI-H358; first compound 0.4 µM): 0.307; relative viability (NCI-H358; first compound 1.265 µM): 0.256; relative viability (NCI-H358; first compound 4 µM): 0.304; relative viability (HOP-62; first compound 0.04 µM): 1.1; relative viability (HOP-62; first compound 0.1265 µM): 1.1; relative viability (HOP-62; first compound 0.4 µM): 1.05; relative viability (HOP-62; first compound 1.265 µM): 1.2; relative viability (HOP-62; first compound 4 µM): 0.893; relative viability (LXF-289; first compound 0.04 µM): 0.913; relative viability (LXF-289; first compound 0.1265 µM): 0.904; relative viability (LXF-289; first compound 0.4 µM): 0.883; relative viability (LXF-289; first compound 1.265 µM): 0.928; relative viability (LXF-289; first compound 4 µM): 0.867; relative viability (NCI-H1944; first compound 0.04 µM): 0.656; relative viability (NCI-H1944; first compound 0.1265 µM): 0.84; relative viability (NCI-H1944; first compound 0.4 µM): 0.78; relative viability (NCI-H1944; first compound 1.265 µM): 0.861; relative viability (NCI-H1944; first compound 4 µM): 0.648; relative viability (A-427; first compound 0.04 µM): 0.976; relative viability (A-427; first compound 0.1265 µM): 0.984; relative viability (A-427; first compound 0.4 µM): 0.978; relative viability (A-427; first compound 1.265 µM): 1.04; relative viability (A-427; first compound 4 µM): 0.589; relative viability (HCC-78; first compound 0.04 µM): 0.737; relative viability (HCC-78; first compound 0.1265 µM): 0.465; relative viability (HCC-78; first compound 0.4 µM): 0.223; relative viability (HCC-78; first compound 1.265 µM): 0.264; relative viability (HCC-78; first compound 4 µM): 0.226; relative viability (NCI-H1975; first compound 0.04 µM): 0.896; relative viability (NCI-H1975; first compound 0.1265 µM): 0.907; relative viability (NCI-H1975; first compound 0.4 µM): 0.723; relative viability (NCI-H1975; first compound 1.265 µM): 0.736; relative viability (NCI-H1975; first compound 4 µM): 0.447; relative viability (LU99A; first compound 0.04 µM): 1.03; relative viability (LU99A; first compound 0.1265 µM): 1.02; relative viability (LU99A; first compound 0.4 µM): 1; relative viability (LU99A; first compound 1.265 µM): 0.988; relative viability (LU99A; first compound 4 µM): 0.721; relative viability (NCI-H1793; first compound 0.1265 µM): 0.655; relative viability (NCI-H1793; first compound 0.4 µM): 0.607; relative viability (NCI-H1793; first compound 1.265 µM): 0.762; relative viability (NCI-H1793; first compound 4 µM): 0.77; relative viability (NCI-H460; first compound 0.04 µM): 0.963; relative viability (NCI-H460; first compound 0.1265 µM): 0.981; relative viability (NCI-H460; first compound 0.4 µM): 0.871; relative viability (NCI-H460; first compound 1.265 µM): 0.996; relative viability (NCI-H460; first compound 4 µM): 0.302; relative viability (HCC-366; first compound 0.04 µM): 1.04; relative viability (HCC-366; first compound 0.1265 µM): 1.04; relative viability (HCC-366; first compound 0.4 µM): 0.863; relative viability (HCC-366; first compound 1.265 µM): 1.08; relative viability (HCC-366; first compound 4 µM): 1.29; relative viability (NCI-H2085; first compound 0.04 µM): 0.718; relative viability (NCI-H2085; first compound 0.1265 µM): 0.86; relative viability (NCI-H2085; first compound 0.4 µM): 0.761; relative viability (NCI-H2085; first compound 1.265 µM): 0.65; relative viability (NCI-H2085; first compound 4 µM): 0.557; relative viability (NCI-H2170; first compound 0.04 µM): 0.247; relative viability (NCI-H2170; first compound 0.1265 µM): 0.275; relative viability (NCI-H2170; first compound 0.4 µM): 0.251; relative viability (NCI-H2170; first compound 1.265 µM): 0.267; relative viability (NCI-H2170; first compound 4 µM): 0.251; relative viability (LC-2-ad; first compound 0.04 µM): 0.993; relative viability (LC-2-ad; first compound 0.1265 µM): 1.02; relative viability (LC-2-ad; first compound 0.4 µM): 0.876; relative viability (LC-2-ad; first compound 1.265 µM): 0.908; relative viability (LC-2-ad; first compound 4 µM): 0.629
